“And” between values parts separate entries of the source, which are not always exact repeats. Equal entries are not always repeated. Where two headings read alike, the source gives them in different places.
What was measured:
[1] = tested on: HT29 colon tumor cells; test: MTT cell viability test, colon tumor cells; assay type: cell-based, human; settings: MTT, 5 day incubation
[2] = tested on: MX1 breast cells; test: MTT cell viability test, breast tumor cells; assay type: cell-based, human; settings: 5 day incubation
[3] = tested on: A549 lung tumor cells; test: MTT cell viability test, lung tumor cells; assay type: cell-based, human; settings: MTT, 5 day incubation
[4] = tested on: HT29 (colon) cancer cells; test: Apoptosis study (TdT assay) and cell growth; assay type: cell-based, human
Experimental: (§1) Summary of test results: The extent of apoptosis is measured in human tumor cell lines after treatment for 1, 2, 3 and 4 days with carbendazim. At each of these time points, the cells are harvested and assayed using the terminal deoxynucleotidyl transferase (TdT) assays. Both microscopy and flow cytometry were used for the TdT assay.
(§2) In MCF7, HT29, B16 and SK-MES cell lines, there was a concentration dependent effect on cell growth. […] After completion of the studies on the MCF7 and HT29 cell lines, it was evident that the 0.1 μg/ml concentration had little effect on either apoptosis or cell growth. Therefore subsequent assays were with 5 μg/ml instead of 0.1 μg/ml.

[5] = tested on: B16 murine melanoma cell line; test: Apoptosis study (TdT assay) and cell growth; assay type: cell-based
Experimental: as §1, §2
The concentration effects at days 1-4 were much more evident after normalization of the apoptosis for the growth rates.

[6] = tested on: SK-MES cells (lung); test: Apoptosis study (TdT assay) and cell growth; assay type: cell-based, human
Experimental: as §1, §2
The growth of SK-MES cells was slowed done by all concentrations of carbendazim past day 1.

[7] = tested on: DLD-1 (abnormal p53); test: Selectivity in killing p53 abnormal cell lines, cell counts; assay type: cell-based; settings: day 7
Experimental: (§3) Summary of lest results: Pairs of tumors of the same type were chosen, one expressing normal p53 and the other abnormal p53. Breast lines used were MCF7 for the normal p53, V4B, a MCF7 cells transformed with an empty vector, and VM4K, an MCF7 cells transfected with a vector encoding abnormal p53. In the colorectal cancer model HCT116 with a normal p53 was used and DLD-1 was used as the abnormal p53 cell line. The tumor cells were grown the presence and absence of carbendazim for 7 days. Cell growth rates were determined in each group by counting the cell numbers daily using a Coulter counter.

[8] = tested on: HCT116 (normal p53); test: as above; assay type: cell-based; settings: day 7
Experimental: as §3

[9] = tested on: MCF7 (normal p53); test: as above; assay type: cell-based; settings: day 7
Experimental: as §3

[10] = tested on: V4B (MCF7 transformed with empty vector); test: as above; assay type: cell-based; settings: day 7
Experimental: as §3

[11] = tested on: VM4K (MCF7 transfected with abnormal p53); test: as above; assay type: cell-based; settings: day 7
Experimental: as §3

[12] = tested on: Prostate cancer model; test: Prostate cancer model, tumor weight; assay type: in vivo, mice; settings: c1-c6 = day 22, 26, 29, 33, 36, 39
[13] = assay type: in vivo
Text: Additional in vivo cancer studies are presented in a tabular form below. The data is presented in the following format—dose regimen in parenthesis, dosage in mg/kg: tumor growth suppression (tg supp.), toxic deaths/number of test subjects (deaths), % weight change (wt).

[14] = tested on: MX1 breast cancer tumors implanted subcutaneously; test: Tumor growth reduction in mice models (Table 5), breast; assay type: in vivo; settings: MXI-breast
[15] = tested on: HIV; test: microbe, parasite or virus in culture; assay type: cell-based
[16] = tested on: influenza; test: In vitro influenza model; assay type: cell-based
[17] = tested on: influenza; test: In vivo model for influenza; set-up: species or system mice; settings: mouse, in vivo
Experimental: The positive control was amantadine (75 mg/kg) with 100% of the mice surviving for 21 days. 2-(Methoxycarbonylamino)benzimidazole was not active in the same test.

[18] = tested on: herpes; test: In vitro herpes model; assay type: cell-based
[19] = DU-145, 4000 mg/kg twice weekly
[20] = DU-145, 5000 mg/kg twice weekly
[21] = DU-145, 6000 mg/kg twice weekly
[22] = HT29 (colon), 2000 mg/kg twice weekly
[23] = HT29 (colon), 3000 mg/kg twice weekly
[24] = HT29 (colon), 4000 mg/kg twice weekly
[25] = HT29 (colon), 5000 mg/kg twice weekly
[26] = HT29 (colon), 6000 mg/kg twice weekly
[27] = MCF-7L (breast), 4000 mg/kg twice weekly
[28] = MCF-7L (breast), 5000 mg/kg twice weekly
[29] = MX1 xenograft, 4000 mg/kg twice weekly
[30] = MX1 xenograft, 5000 mg/kg twice weekly
[31] = MX1 xenograft, 6000 mg/kg twice weekly
[32] = SK-MES, 4000 mg/kg twice weekly
[33] = SK-MES, 5000 mg/kg twice weekly
[34] = SK-MES, 6000 mg/kg twice weekly

COC(=O)Nc1nc2ccccc2[nH]1 [carbendazim, 2-methoxycarbonylamino-benzimidazole]
EC-50 Result ([1]; HT29, first column): 0.621 ppm | EC-50 Result ([1]; HT29, second column): 0.662 ppm | EC-50 Result ([2]; MX1, first column): 0.829 ppm | EC-50 Result ([2]; MX1, second column): 0.856 ppm | EC-50 Result ([3]; A549, first column): 0.856 ppm | EC-50 Result ([3]; A549, second column): 0.836 ppm | apoptosis ([4]; 10 μg/ml, days 3 and 4): > 25% | cell growth ([4]; below 10 μg/ml): not largely slowed down | growth rates ([5]; all concentrations): affected the growth rates | apoptosis ([5]; days 14 by TdT microscopy and days 2-4 by flow cytometry): Some concentration dependent effects | cell growth ([6]; all concentrations, past day 1): slowed done | percent of apoptosis ([6]; days 1-4 microscopic TdT assay, days 3 and 4 flow cytometry): concentration-response effect | cell counts, % of the control ([7]; DLD1, 1 μg/ml): 34% | cell counts, % of the control ([7]; DLD-1, 5 μg/ml): less than 10% | cell counts, % of the control ([7]; DLD-1, 10 μg/ml): less than 10% | cell counts, % of the control ([8]; HCT 116, 1 μg/ml): 78% | cell counts, % of the control ([8]; HCT116, 5 μg/ml): less than 10% | cell counts, % of the control ([8]; HCT116, 10 μg/ml): less than 10% | cell counts, % of the control ([9]; 5 μg/ml): 45% | cell counts, % of the control ([9]; 10 μg/ml): 36% | cell counts, % of the control ([10]; 5 μg/ml): less than 10% | cell counts, % of the control ([10]; 10 μg/ml): less than 10% | cell counts, % of the control ([11]; 5 μg/ml): less than 10% | cell counts, % of the control ([11]; 10 μg/ml): less than 10% | tumor weight ([12]; 4000 mg/kg p.o. twice a week): 330.5 mg and 347.9 mg and 346.6 mg and 421.1 mg and 464.9 mg and 517 mg | tumor weight ([12]; 6000 mg/kg p.o. twice a week): 331.5 mg and 371.7 mg and 421.7 mg and 517.2 mg and 529.9 mg and 595.2 mg | % weight change (wt) ([13]; A549 (lung), 500 mg/kg): +10% | toxic deaths/number of test subjects (deaths) ([13]; A549 (lung), 500 mg/kg): 0/10 | tumor growth suppression (tg supp.) ([13]; A549 (lung), 500 mg/kg): 57% | toxic deaths/number of test subjects (deaths) ([13]; A549 (lung), 2500 mg/kg): 10/10 | % weight change (wt) [13, 19]: −5% | toxic deaths/number of test subjects (deaths) [13, 19]: 0/10 | tumor growth suppression (tg supp.) [13, 19]: 52% | % weight change (wt) [13, 20]: −8% | toxic deaths/number of test subjects (deaths) [13, 20]: 1/10 | tumor growth suppression (tg supp.) [13, 20]: 48% | % weight change (wt) [13, 21]: −6% | toxic deaths/number of test subjects (deaths) [13, 21]: 1/10 | tumor growth suppression (tg supp.) [13, 21]: 33% | % weight change (wt) [13, 22]: +3% | toxic deaths/number of test subjects (deaths) [13, 22]: 0/10 | tumor growth suppression (tg supp.) [13, 22]: 36% | % weight change (wt) [13, 23]: −6% | toxic deaths/number of test subjects (deaths) [13, 23]: 2/10 | tumor growth suppression (tg supp.) [13, 23]: 65% | % weight change (wt) [13, 24]: −12% | toxic deaths/number of test subjects (deaths) [13, 24]: 3/10 | tumor growth suppression (tg supp.) [13, 24]: 78% | % weight change (wt) [13, 25]: −8% | toxic deaths/number of test subjects (deaths) [13, 25]: 2/10 | tumor growth suppression (tg supp.) [13, 25]: 79% | % weight change (wt) [13, 26]: −25% | toxic deaths/number of test subjects (deaths) [13, 26]: 9/10 | tumor growth suppression (tg supp.) [13, 26]: 97% | % weight change (wt) [13, 27]: −7% | toxic deaths/number of test subjects (deaths) [13, 27]: 5/10 | tumor growth suppression (tg supp.) [13, 27]: 94% | % weight change (wt) [13, 28]: −8% | toxic deaths/number of test subjects (deaths) [13, 28]: 7/10 | tumor growth suppression (tg supp.) [13, 28]: 100% | toxic deaths/number of test subjects (deaths) ([13]; MCF-7L (breast), 6000 mg/kg twice weekly): 10/10 | % weight change (wt) [13, 29]: −1% | toxic deaths/number of test subjects (deaths) [13, 29]: 0/10 | tumor growth suppression (tg supp.) [13, 29]: 48% | % weight change (wt) [13, 30]: −4% | toxic deaths/number of test subjects (deaths) [13, 30]: 1/10 | tumor growth suppression (tg supp.) [13, 30]: 63% | % weight change (wt) [13, 31]: −4% | toxic deaths/number of test subjects (deaths) [13, 31]: 1/9 | tumor growth suppression (tg supp.) [13, 31]: 70% | % weight change (wt) [13, 32]: +3% | toxic deaths/number of test subjects (deaths) [13, 32]: 2/10 | tumor growth suppression (tg supp.) [13, 32]: 45% | % weight change (wt) [13, 33]: +2% | toxic deaths/number of test subjects (deaths) [13, 33]: 1/10 | tumor growth suppression (tg supp.) [13, 33]: 44% | % weight change (wt) [13, 34]: −2% | toxic deaths/number of test subjects (deaths) [13, 34]: 3/10 | tumor growth suppression (tg supp.) [13, 34]: 69% | Tumor Growth Decrease (%) ([14]; 500 mg/kg): 42% | Tumor Growth Decrease (%) ([14]; 2500 mg/kg): 37% | therapeutic index (TI), ratio of toxic dose to efficacious dose [15]: 1.8 | inhibition at 4 µg/mL ([15]; Human immunodeficiency virus 1, read-out: inhibition of viral replication): 100% | activity [16]: no activity | activity [17]: not active | activity [18]: no activity
